Test results: patent US8258304B2, “N-aryl piperidine substituted biphenylcarboxamides” (Janssen Pharmaceutica N.V., priority 2002, dated 2012)

test system: not given; assay: not given; conditions: not given

melting point [°C]	SMILES
134 to 137	CCOC(=O)CC1CCN(c2ccc(NC(=O)c3cccc(C)c3-c3ccc(C(F)(F)F)cc3)cn2)CC1 [Compound 14]

test system: secretion of ApoB in HepG2 cells; assay: Quantification of the secretion of ApoB; assay type: cell-based; conditions: Homo sapiens, 24 hours of incubation with test compound, apoB immunoprecipitated from medium, read-out: pIC50 values (=−log IC50 value) (converted)
Procedure: HepG2 cells were cultured in 24-well plates in MEM Rega 3 containing 10% fetal calf serum. At 70% confluency, the medium was changed and the test compound or carrier (DMSO, 0.4% final concentration) was added. After 24 hours of incubation, the medium was transferred to Eppendorf tubes and cleared by centrifugation. A sheep antibody directed against either apoB was added to the supernatant and the mixture was kept at 8° C. for 24 hours. Then, rabbit anti-sheep antibody was added and the immune complex was allowed to precipitate for 24 hours at 8° C. The immunoprecipitate was pelleted by centrifugation for 25 minutes at 1320 g and washed twice with a buffer containing 40 mM Mops, 40 mM NaH2PO4, 100 mM NaF, 0.2 mM DTT, 5 mM EDTA, 5 mM EGTA, 1% Triton-X-100, 0.5% sodium deoxycholate (DOC), 0.1% SDS, 0.2 μM leupeptin and 0.2 μM PMSF. Radioactivity in the pellet was quantified by liquid scintillation counting.
Resulting IC50 values are enumerated in Table C.1.

SMILES	IC50 [nM]
O=C(Nc1ccc(N2CCC(C(=O)NCc3ccccc3)CC2)cc1)c1ccccc1-c1ccc(C(F)(F)F)cc1 [Compound 1]	25.4
CC(C)(C)c1ccc(-c2ccccc2C(=O)Nc2ccc(N3CCC(CC(=O)NCc4ccccc4)CC3)cc2)cc1 [Compound 2]	6.04
O=C(CC1CCN(c2ccc(NC(=O)c3ccccc3-c3ccc(C(F)(F)F)cc3)cc2)CC1)NCc1ccccc1 [Compound 3]	3.56
CCNC(=O)C1CCN(c2ccc(NC(=O)c3ccccc3-c3ccc(C(F)(F)F)cc3)cc2)CC1 [Compound 4]	8.02
CCNC(=O)CC1CCN(c2ccc(NC(=O)c3ccccc3-c3ccc(C(F)(F)F)cc3)cc2)CC1 [Compound 5]	38.4
CCNC(=O)C1CCN(c2ccc(NC(=O)c3ccccc3-c3ccc(C(C)(C)C)cc3)cc2)CC1 [Compound 6]	11.6
CCNC(=O)CC1CCN(c2ccc(NC(=O)c3ccccc3-c3ccc(C(C)(C)C)cc3)cc2)CC1 [Compound 7]	2.39
CC(C)(C)c1ccc(-c2ccccc2C(=O)Nc2ccc(N3CCC(C(=O)NCc4ccccc4)CC3)cc2)cc1 [Compound 8]	153
COC(=O)C1CCN(c2ccc(NC(=O)c3ccccc3-c3ccc(C(F)(F)F)cc3)cc2)CC1 [Compound 9]	619

Next, values leading:

IC50 [nM]	SMILES
11.3	CCOC(=O)CC1CCN(c2ccc(NC(=O)c3cccc(C)c3-c3ccc(C(F)(F)F)cc3)cc2)CC1 [Compound 10]
12.1	COC(=O)CC1CCN(c2ccc(NC(=O)c3ccccc3-c3ccc(C(F)(F)F)cc3)cc2)CC1 [Compound 11]
31.4	CCOC(=O)CC1CCN(c2ccc(NC(=O)c3ccc(C)cc3-c3ccc(C(F)(F)F)cc3)cc2)CC1 [Compound 12]
89.5	CCOC(=O)CC1CCN(c2ccc(NC(=O)c3ccccc3-c3ccc(C(F)(F)F)cc3)cn2)CC1 [Compound 13]
9.29	CCOC(=O)CC1CCN(c2ccc(NC(=O)c3cccc(C)c3-c3ccc(C(F)(F)F)cc3)cn2)CC1 [Compound 14]
25.6	CCOC(=O)CC1CCN(c2ccc(NC(=O)c3ccc(C)cc3-c3ccc(C(F)(F)F)cc3)cn2)CC1 [Compound 15]
